Earlier results on two compounds are cited in patent US7771744B2, “Bazedoxifene acetate formulations” (Wyeth LLC, priority 2005, dated 2010).

The test system of data set [1] is MCF-7 cell line (human breast cancer cell line).
For the next data set, the system named is uterine response. Conditions: preclinical models of uterine stimulation.
The subject of data set [2] is bone loss and cholesterol. Conditions: ovariectomized rat model of osteopenia.

As to `Cc1c(-c2ccc(O)cc2)n(Cc2ccc(OCCN3CCCCCC3)cc2)c2ccc(O)cc12` [Form A, 1-[4-(2-azepan-1-yl-ethoxy)-benzyl]-2-(4-hydroxy-phenyl)-3-methyl-1H-indol-5-ol acetic acid], the “solubility in aqueous and organic solvent systems compared with form B” value is “higher solubility”.
For the compound `Cc1c(-c2ccc(O)cc2)n(Cc2ccc(OCCN3CCCCCC3)cc2)c2ccc(O)cc12` [bazedoxifene acetate, 1-[4-(2-azepan-1-yl-ethoxy)-benzyl]-2-(4-hydroxy-phenyl)-3-methyl-1H-indol-5-ol acetic acid], the estrogen antagonist behaviour entry in data set [1] was “behaves as an estrogen antagonist”. Further, in the data set with uterine response, the “stimulation of uterine response” value was “little or no stimulation of uterine response”. The “effect on bone loss and cholesterol” value in data set [2] was “estrogen agonist-like effect in preventing bone loss and reducing cholesterol”.
